Biological target: human MMP-13 catalytic domain (hMMP-13CD) (Homo sapiens, UniProt P45452)
Assay: Inhibition of MMP-13 catalytic domain (thiopeptolide substrate assay)
Type: biochemical
Description: The assays measure the amount by which a test compound reduces the hydrolysis of a thiopeptolide substrate catalyzed by a matrix metalloproteinase enzyme. Such assays are described in detail by Ye et al., in Biochemistry, 1992;31(45):11231-11235, which is incorporated herein by reference. One such assay is described below in Biological Method 1.
Thiopeptolide substrates show virtually no decomposition or hydrolysis at or below neutral pH in the absence of a matrix metalloproteinase enzyme. A typical thiopeptolide substrate commonly utilized for assays is Ac-Pro-Leu-Gly-thioester-Leu-Leu-Gly-OEt. […] The change in absorbance at 405 nm is monitored on a Thermo Max microplate reader (molecular Devices, Menlo Park, Calif.) at room temperature (22° C.). […]
Some representative compounds of Formula I have been evaluated for their ability to inhibit MMP-13. Inhibitor activity versus other MMPs with the compounds may be determined using, for example, MMP-1FL, which refers to full length interstitial collagenase; MMP-2FL, which refers to full length Gelatinase A; MMP-3CD, which refers to the catalytic domain of stromelysin; MMP-7FL, which refers to full length matrilysin; MMP-9FL, which refers to full length Gelatinase B; MMP-13CD, which refers to the catalytic domain of collagenase 3; and MMP-14CD, which refers to the catalytic domain of MMP-14. […]

IC50: > 50 µM
Compound: O=C(O)c1ccc(Cn2ccc3ccc(C#CCn4ccnn4)cc3c2=O)cc1 [4-[1-oxo-7-(3-[1,2,3]triazol-1-ylprop-1-ynyl)-1H-isoquinolin-2-ylmethyl]benzoic acid]
